Legend:
[1] = target: T1, 11-beta-hydroxysteroid dehydrogenase 1 (Homo sapiens, UniProt P28845); assay: Inhibition of 11beta-HSD1 (unknown origin) using 3H-cortisone as substrate by scintillation proximity assay
[2] = target: T1, 11-beta-hydroxysteroid dehydrogenase 1; assay: Inhibition of 11beta-HSD1 in human PBMC cells using 3H-cortisone as substrate assessed as conversion of cortisone to cortisol by ELISA; format: cell-based
hERG (KCNH2) = hERG (KCNH2) (Homo sapiens, UniProt Q12809); assay: Inhibition of human ERG expressed in CHO cells at 30 uM at -80 mV holding potential by automated patch clamp assay relative to control; format: toxicity, cell-based; conditions: CHO cells expressing human ERG
hERG (KCNH2), sequence (Q12809 whole entry): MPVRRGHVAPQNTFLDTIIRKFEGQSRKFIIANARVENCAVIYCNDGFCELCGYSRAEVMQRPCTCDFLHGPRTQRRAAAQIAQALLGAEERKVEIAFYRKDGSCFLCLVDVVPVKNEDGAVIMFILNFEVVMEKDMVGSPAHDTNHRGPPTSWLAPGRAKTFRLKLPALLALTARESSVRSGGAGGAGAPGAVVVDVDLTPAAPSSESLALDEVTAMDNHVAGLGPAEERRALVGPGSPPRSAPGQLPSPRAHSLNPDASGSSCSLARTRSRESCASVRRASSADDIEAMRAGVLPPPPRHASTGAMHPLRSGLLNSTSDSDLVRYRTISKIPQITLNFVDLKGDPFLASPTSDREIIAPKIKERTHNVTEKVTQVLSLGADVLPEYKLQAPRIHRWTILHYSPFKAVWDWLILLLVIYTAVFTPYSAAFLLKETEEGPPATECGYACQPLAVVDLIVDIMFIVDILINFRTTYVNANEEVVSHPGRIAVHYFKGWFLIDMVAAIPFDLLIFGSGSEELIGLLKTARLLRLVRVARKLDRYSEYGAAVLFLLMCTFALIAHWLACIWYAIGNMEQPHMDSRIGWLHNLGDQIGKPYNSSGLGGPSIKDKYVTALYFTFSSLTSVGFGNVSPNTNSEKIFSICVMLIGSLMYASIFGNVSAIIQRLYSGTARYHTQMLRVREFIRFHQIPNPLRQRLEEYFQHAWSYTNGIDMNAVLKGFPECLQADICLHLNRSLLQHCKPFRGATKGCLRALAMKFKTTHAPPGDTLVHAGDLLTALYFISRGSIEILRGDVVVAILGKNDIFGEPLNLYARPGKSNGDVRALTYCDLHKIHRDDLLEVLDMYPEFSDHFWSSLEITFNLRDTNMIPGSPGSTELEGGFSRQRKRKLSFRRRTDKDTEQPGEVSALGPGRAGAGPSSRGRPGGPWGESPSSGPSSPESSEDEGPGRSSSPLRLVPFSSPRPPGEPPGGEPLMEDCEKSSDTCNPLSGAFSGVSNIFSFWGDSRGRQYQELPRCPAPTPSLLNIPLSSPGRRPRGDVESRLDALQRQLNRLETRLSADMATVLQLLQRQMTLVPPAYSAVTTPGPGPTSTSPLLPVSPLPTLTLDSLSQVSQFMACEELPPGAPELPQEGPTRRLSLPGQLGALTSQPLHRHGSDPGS

PXR (NR1I2) [3] = target: T2, PXR (NR1I2) (Rattus norvegicus, UniProt Q9R1A7); assay: Activation of rat PXR assessed as induction of PXR activity at 10 uM relative to control; conditions: read-out: Activity
T2 sequence (Q9R1A7 whole entry): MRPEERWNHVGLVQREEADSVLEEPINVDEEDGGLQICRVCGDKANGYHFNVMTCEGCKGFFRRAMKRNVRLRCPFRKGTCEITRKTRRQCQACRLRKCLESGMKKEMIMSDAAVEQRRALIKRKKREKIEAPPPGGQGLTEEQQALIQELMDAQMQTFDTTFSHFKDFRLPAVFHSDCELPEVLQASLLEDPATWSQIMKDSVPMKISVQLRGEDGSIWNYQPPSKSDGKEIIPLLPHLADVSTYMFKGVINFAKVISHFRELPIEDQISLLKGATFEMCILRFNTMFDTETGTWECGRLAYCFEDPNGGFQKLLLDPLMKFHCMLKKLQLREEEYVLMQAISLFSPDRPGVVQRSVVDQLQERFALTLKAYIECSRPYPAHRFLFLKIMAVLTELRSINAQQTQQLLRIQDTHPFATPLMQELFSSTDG

PXR (NR1I2) [4] = target: T3, PXR (NR1I2) (Homo sapiens, UniProt O75469); assay: Activation of human PXR assessed as induction of PXR activity at 10 uM relative to control; conditions: read-out: Activity
T3 sequence (O75469 whole entry): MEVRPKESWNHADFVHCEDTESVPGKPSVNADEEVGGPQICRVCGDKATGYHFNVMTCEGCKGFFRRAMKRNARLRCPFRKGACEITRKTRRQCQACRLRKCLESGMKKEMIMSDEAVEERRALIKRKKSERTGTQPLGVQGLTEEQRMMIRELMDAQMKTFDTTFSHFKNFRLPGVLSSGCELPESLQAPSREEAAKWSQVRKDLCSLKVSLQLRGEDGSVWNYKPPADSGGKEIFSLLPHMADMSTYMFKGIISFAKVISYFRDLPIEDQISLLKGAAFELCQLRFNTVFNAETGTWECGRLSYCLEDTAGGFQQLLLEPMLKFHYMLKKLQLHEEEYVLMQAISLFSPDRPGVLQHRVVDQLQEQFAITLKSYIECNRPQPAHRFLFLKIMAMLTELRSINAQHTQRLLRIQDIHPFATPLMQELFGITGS

[5] = target: T1, 11-beta-hydroxysteroid dehydrogenase 1; assay: Inhibition of 11beta-HSD1 (unknown origin)

T1 sequence (P28845 whole entry): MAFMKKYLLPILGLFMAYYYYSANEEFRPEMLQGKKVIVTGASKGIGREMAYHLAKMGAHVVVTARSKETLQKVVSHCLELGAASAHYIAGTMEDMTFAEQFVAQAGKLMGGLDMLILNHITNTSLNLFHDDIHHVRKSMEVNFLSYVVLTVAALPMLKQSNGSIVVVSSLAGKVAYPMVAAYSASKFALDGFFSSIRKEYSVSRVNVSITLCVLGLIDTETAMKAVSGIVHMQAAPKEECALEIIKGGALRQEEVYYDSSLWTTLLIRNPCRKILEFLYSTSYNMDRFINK

IC50 [1] | IC50 [2] | activity at 10 µM (PXR (NR1I2) [3]) | activity at 10 µM (PXR (NR1I2) [4]) | IC50 [5] | SMILES | inhibition at 30 µM (hERG (KCNH2))
460 nM |  |  |  |  | O=C1N(C2CCCCC2)CCC12CCCN2CC1CCOC1 (stereo not drawn) | 
80 nM | > 37 nM |  |  |  | O=C1N(C2CCCCC2)CC[C@]12C[C@@H](O)CN2Cc1ccc(-c2ccc(F)cc2)nc1 | 
> 1000 nM |  |  |  |  | O=C1N(C2CCCCC2)CCC12CCCN2C1CCC1 (stereo not drawn) | 
6 nM | 6.2 nM | 16% | 42% |  | O=C1N(C2CCCCC2)CC[C@]12C[C@@H](O)CN2Cc1ccc(Cl)cc1 | 14%
400 nM |  |  |  |  | CC(C)CN1CCCC12CCN(C13CC4CC(CC(C4)C1)C3)C2=O (stereo not drawn) | 
400 nM | > 37 nM | 2% | 1% |  | CC(C1CC1)N1C[C@H](O)C[C@]12CCN(C1CCCCC1)C2=O (stereo partly drawn) | -10%
30 nM |  | 2% | 0.5% |  | O=C1N([C@H]2CC[C@H](O)CC2)CCC12CCCN2Cc1ccc(Cl)cc1 (stereo partly drawn) | 13%
500 nM |  |  |  |  | O=C1N(c2ccccc2Cl)CCC12CCCN2CC1CC1 (stereo not drawn) | 
227 nM | > 37 nM |  |  |  | CCNC(=O)c1ccc(-c2cccc(CN3C[C@H](O)C[C@]34CCN(C3CCCCC3)C4=O)c2)cn1 | 
18 nM | 35 nM |  |  |  | N#Cc1ccc(-c2ccc(CN3C[C@H](O)C[C@]34CCN(C3CCCCC3)C4=O)cn2)cc1 | 
999 nM | > 37 nM | 41% | 9.5% |  | CC1(O)CN(Cc2ccc(Cl)cc2)[C@@]2(CCN(C3CCCCC3)C2=O)C1 (stereo partly drawn) | 13%
> 1000 nM |  |  |  |  | O=C(c1ccccn1)N1CCCC12CCN(C1CCCCC1)C2=O (stereo not drawn) | 
7 nM |  | 10% | 18% |  | O=C1N(C2CCCCC2)CCC12C[C@@H](O)CN2Cc1ccc(Cl)cc1 (stereo partly drawn) | 27%
30 nM |  |  |  |  | O=C1N(C2CCCCC2)CC[C@]12C[C@@H](O)CN2CC1CCCC1 | 
15 nM | 7 nM | 14% | 9% |  | O=C1N(C2CCCCC2)CC[C@]12C[C@@H](O)CN2CC1CCCCC1 | 8.1%
134 nM |  |  |  |  | O=C1N(C23CC4CC(CC(C4)C2)C3)CCC12CCCN2Cc1ccccn1 (stereo not drawn) | 
2 nM | 5.1 nM | 123% | 48% |  | O=C1N(C2CCCCC2)CC[C@]12C[C@H](F)CN2Cc1ccc(Cl)cc1 | 52%
13 nM | 9.5 nM |  |  |  | CNC(=O)c1ccc(-c2ccc(CN3C[C@H](O)C[C@]34CCN(C3CCCCC3)C4=O)cc2F)cn1 | 
7 nM | 3.9 nM | 9% | 4.5% |  | CC(C1CCC1)N1C[C@H](O)C[C@]12CCN(C1CCCCC1)C2=O (stereo partly drawn) | -15%
> 1000 nM | > 37 nM | 12% | 52% |  | O=C1N(C2CCCCC2)CC[C@@]12C[C@H](O)CN2Cc1ccc(Cl)cc1 | -4.3%
62 nM | > 37 nM |  |  |  | CCNC(=O)c1ccc(-c2cc(CN3C[C@H](O)C[C@]34CCN(C3CCCCC3)C4=O)ccc2F)cn1 | 
2 nM | 5.9 nM | 24% | 14% |  | CNC(=O)c1ccc(-c2ccc(CN3C[C@@H](F)C[C@]34CCN(C3CCCCC3)C4=O)cc2)cn1 | 49%
29 nM |  |  |  |  | N#Cc1ccc(CN2CCCC23CCN(C2CCCCC2)C3=O)cc1 (stereo not drawn) | 
3 nM | 7.2 nM | -0.3% | -0.3% |  | CNC(=O)c1ccc(-c2ccc(CN3C[C@H](O)C[C@]34CCN(C3CCCCC3)C4=O)cc2)cn1 | -14%
 |  |  |  | 12 nM | O=C(NC12CC3CC(CC(C3)C1)C2)[C@H]1CCCN1Cc1ccccn1 | 

IC50 [1] | IC50 [2] | activity at 10 µM (PXR (NR1I2) [3]) | activity at 10 µM (PXR (NR1I2) [4]) | IC50 [5] | SMILES | inhibition at 30 µM (hERG (KCNH2))
35 nM |  |  |  |  | CN(C)C(=O)c1ccc(-c2ccc(CN3C[C@H](O)C[C@]34CCN(C3CCCCC3)C4=O)cc2)cn1 | 
134 nM |  |  |  |  | O=C1N(C2CCCCC2)CCC12CCCN2CC1CC1 (stereo not drawn) | 
351 nM |  |  |  |  | O=C1N(C2CCCCC2)CC[C@]12C[C@@H](O)CN2C1CCCC1 | 
7 nM |  | 12% | 80% |  | O=C1N(C2CCCCC2)CCC12CCCN2Cc1ccc(C(F)(F)F)cc1 (stereo not drawn) | 27%
5 nM | 4.9 nM |  |  |  | CC(C)NC(=O)c1ccc(-c2ccc(CN3C[C@H](O)C[C@]34CCN(C3CCCCC3)C4=O)cc2F)cn1 | 
188 nM |  |  |  |  | N#Cc1cncc(-c2ccc(CN3C[C@H](O)C[C@]34CCN(C3CCCCC3)C4=O)cc2)c1 | 
8 nM |  | 22% | 46% |  | O=C1N(C2CCCCC2)CCC12CCCN2Cc1ccc(Cl)cc1 (stereo not drawn) | 45%
26 nM |  |  |  |  | O=C1N(C2CCCC2)CCC12CCCN2Cc1ccc(Cl)cc1 (stereo not drawn) | 
40 nM |  |  |  |  | O=C1N(C2CCCCC2)CCC12CCCN2Cc1cccc(C(F)(F)F)c1 (stereo not drawn) | 
230 nM |  |  |  |  | N#Cc1ccc(-c2ccc(CN3C[C@H](O)C[C@]34CCN(C3CCCCC3)C4=O)nc2)cc1 | 
35 nM |  |  |  |  | N#Cc1ccnc(-c2ccc(CN3C[C@H](O)C[C@]34CCN(C3CCCCC3)C4=O)cc2)c1 | 
7 nM |  |  |  |  | O=C1N(C2CCCCCC2)CCC12CCCN2Cc1ccc(Cl)cc1 (stereo not drawn) | 
51 nM |  |  |  |  | O=C1N(C23CC4CC(CC(C4)C2)C3)CCC12CCCN2CC1CCCC1 (stereo not drawn) | 
45 nM |  |  |  |  | O=C1N(C2CCOCC2)CCC12CCCN2Cc1ccc(Cl)cc1 (stereo not drawn) | 
15 nM |  |  |  |  | O=C1N(C2CCCCC2)CCC12CCCN2Cc1ccccc1C(F)(F)F (stereo not drawn) | 
15 nM | 21 nM | 28% | 56% |  | CCN1C[C@@H](O)C[C@]12CCN(C1CCCCC1)C2=O | 11%
36 nM |  |  |  |  | O=C1N(C2CCCCC2)CCC12CCCN2CC1CCCC1 (stereo not drawn) | 
> 1000 nM | > 37 nM | -0.5% | -0.5% |  | CC(C)N1C[C@H](O)C[C@]12CCN(C1CCCCC1)C2=O | 0%
23 nM |  | 31% | 13% |  | CCNC(=O)c1ccc(-c2ccc(CN3CCCC34CCN(C3CCCCC3)C4=O)cc2)cn1 (stereo not drawn) | 15%
> 1000 nM |  |  |  |  | O=C1N(C23CC4CC(CC(C4)C2)C3)CCC12CCCN2c1ccc(C(F)(F)F)cn1 (stereo not drawn) | 
92 nM | > 37 nM |  |  |  | N#Cc1cccc(-c2ccc(CN3C[C@H](O)C[C@]34CCN(C3CCCCC3)C4=O)cn2)c1 | 
 |  |  |  | 9 nM | CC(C)CN1CCC[C@@H]1C(=O)NC1CCCCC1 | 
5 nM | 1.9 nM | 58% | 10% |  | CC(C1CCCCC1)N1C[C@H](O)C[C@]12CCN(C1CCCCC1)C2=O (stereo partly drawn) | 14%
9 nM | 17 nM |  |  |  | CNC(=O)c1ccc(-c2ccc(CN3C[C@H](O)C[C@]34CCN(C3CCCCC3)C4=O)c(F)c2)cn1 | 
7 nM | 6.6 nM |  |  |  | O=C1N(C2CCCCC2)CC[C@]12C[C@@H](O)CN2Cc1ccc(-c2ccncc2)cc1 | 

SMILES | IC50 [1] | IC50 [2] | activity at 10 µM (PXR (NR1I2) [3]) | activity at 10 µM (PXR (NR1I2) [4]) | IC50 [5] | inhibition at 30 µM (hERG (KCNH2))
O=C1N(C2CCCCC2)CCC12CCCN2Cc1ccccn1 (stereo not drawn) | 63 nM |  |  |  |  | 

Reference: ChEMBL document CHEMBL5104129, “Discovery of a novel 2-spiroproline steroid mimetic scaffold for the potent inhibition of 11β-HSD1” (Bioorg Med Chem Lett, 2022)
